This note sets out measurements from BindingDB's records for doi:10.1021/bi00419a019 (University of Wisconsin, 1988).

For the experiment, the target named is T1, Aminopeptidase B (Mus musculus, UniProt Q8VCT3).
T1 sequence (Q8VCT3 whole entry): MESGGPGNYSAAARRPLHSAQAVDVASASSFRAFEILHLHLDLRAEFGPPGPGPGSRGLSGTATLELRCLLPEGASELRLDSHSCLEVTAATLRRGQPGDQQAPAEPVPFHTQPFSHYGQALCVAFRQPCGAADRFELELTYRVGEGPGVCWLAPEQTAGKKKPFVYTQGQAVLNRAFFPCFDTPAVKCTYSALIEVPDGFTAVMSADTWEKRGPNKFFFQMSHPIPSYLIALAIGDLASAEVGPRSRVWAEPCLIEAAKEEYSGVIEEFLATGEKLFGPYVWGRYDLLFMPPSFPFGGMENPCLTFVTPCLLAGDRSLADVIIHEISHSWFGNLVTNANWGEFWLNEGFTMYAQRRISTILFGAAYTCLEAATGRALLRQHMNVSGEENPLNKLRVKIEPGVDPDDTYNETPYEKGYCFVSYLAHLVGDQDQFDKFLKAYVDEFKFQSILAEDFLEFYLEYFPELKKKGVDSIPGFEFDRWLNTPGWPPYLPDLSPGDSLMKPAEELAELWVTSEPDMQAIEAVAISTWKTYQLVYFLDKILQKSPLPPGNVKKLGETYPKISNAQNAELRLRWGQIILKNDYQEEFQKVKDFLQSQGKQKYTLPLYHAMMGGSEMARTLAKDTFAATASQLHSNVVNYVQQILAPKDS

With `CC(C)C[C@H](NC(=O)[C@@H](O)[C@H](N)Cc1ccccc1)C(=O)O`, the IC50 amounted to 160 µM.

What is called IC50 is the point on the concentration scale where inhibition reaches its midpoint. The low end stands for greater potency in that assay, the high end for weaker potency in that assay.
